Measurements: PMC6656724 (Communications Biology, 2019)
Like-named read-outs stand apart in the source and are kept apart here.

How the values were obtained:
MDR1 (P-glycoprotein) = assay: in vitro; type: in vitro ADME, canine; conditions: dog
Method: (§1) internal standard at each timepoint. […]
(§2) including an analytical internal standard.
(§3) Apparent permeability (Papp) values were determined from the relationship: […]
(§4) Where V is the volume of each Transwell compartment (apical 125 µL, basolateral 600 µL), and concentrations are the relative MS responses for compound (normalized to internal standard) in the donor chamber before incubation and acceptor chamber at the end of the incubation. Area = area of cells exposed for drug transfer (0.33 cm 2).
(§5) Efflux ratios (Papp B>A / Papp A>B) were calculated for each compound from the […]
(§6) MDR1-MDCK cell line has been engineered to overexpress the efflux transporter, MDR1 (P-glycoprotein), and a finding of good permeability B>A, but poor […]
(§7) order to confirm the involvement of MDR1 in any efflux seen, an “ef fective efflux ratio” (EER) was calculated by comparing compound efflux ratios (ER) in the two cell types, i.e. EER = ER (MDR1-MDCK)/ ER (wild-type MDCK). This ratio illustrates the effect of the over-expressed MDR1 normalised for the background movement of compound through the wild-type cells.
(§8) Lucifer Yellow (LY) was added to the apical buffer in all wells to assess viability of the cell layer. As LY cannot freely permeate lipophilic barriers, a high degree of LY […]
(§9) validity of other wells on the plate.
(§10) Compound recovery from the wells was determined from MS responses (normalized to internal standard) in donor and acceptor chambers at the end of incubation compared to response in the donor chamber pre-incubation.

in vitro = in vitro ADME, canine; conditions: dog, MDCK
Method: as §1, §2, §3, §4, §5, §6, §7, §8, §9, §10

[1] = Mouse brain penetration study; type: in vivo, female C57BL6 mice
Method: Inhibitor 1 (and prodrugs 1a, 1b, 1c and 1d) was dosed as a bolus solution intravenously at 1 mg free base/kg (dose volume: 5 mL/kg; dose vehicle: 5% DMSO; 95% saline (inhibitor 1) or 5% DMSO; 40% PEG400; 55% MilliQ H2O (prodrugs 1a, 1b, 1c and 1d)) to female C57BL6 mice (n = 6). At 5 min and 60 min following intravenous bolus injection of test compound, mice (n = 3/timepoint) were placed under terminal anaesthesia with isofluorane. A blood sample was taken by cardiac puncture, the […] decapitated and the brain removed. Brain weight was noted and each brain homogenised with two volumes of methanol (2 mL/g brain). Each blood sample was diluted with distilled water (1:10). Diluted blood and the brain homogenates were then stored frozen until preparation and analysis by UPLC-MS/MS. For each mouse at each timepoint for 1, the concentration in brain (ng/g) was divided by the concentration in blood (ng/mL) to give a brain:blood ratio. The mean value obtained was quoted. For prodrugs 1a to 1d, only the concentration of 1 in blood (ng/mL) and brain (ng/g) was reported.
A rapid and sensitive ultra-performance chromatography/tandem mass spectrometry (UPLC-MS/MS) method was developed and validated for the determination of inhibitor 1 and prodrug 1b (rat only). Chromatographic analysis was conducted on a Waters Acquity™ UPLC system. Chromatographic separation was performed with an Acquity™ UPLC BEH C18 column (50 × 2.1 mm, 1.7 µm, 130Å; Waters Corp.) maintained at 40 °C in a column oven. The mobile phase consisted of water with 0.01% formic acid and ACN with 0.01 % formic acid and it was delivered at a flow rate of 0.6 mL/min under gradient eluent conditions within an analysis cycle time of 3 min. The mass detection was conducted on a Waters Xevo™ TQs mass spectrometer equipped with a ScanWave™ technology. Quantitation of the analyte was performed in electrospray positive ionisation mode (ESI^+) using multiple reaction monitoring. The optimised fragmentation transition was m/z = 270.17 → 196.19 (mouse) or m/z = 270.17 → 223.76 (rat) for inhibitor 1 and m/z = 297.83 → 195.74 for prodrug 1b (rat).
Sample extraction for blood and brain homogenate was by protein precipitation (1:3 or 1:6) using ACN containing suitable internal standard. Extracts were vortexed followed by centrifugation (2800 rpm for 10 min). An aliquot of each supernatant was then diluted two-fold in distilled water ready for analysis by UPLC-MS/MS.
The weighted 1/x^2 calibration line was linear in the dynamic range of 1–5000 ng/mL for inhibitor 1 and 1–1000 ng/mL for prodrug 1b with a correlation coefficient (r^2) > 0.99 (inhibitor 1) or 0.98 (prodrug 1b). The quality control samples (QC) were prepared by using the same spiking scheme as the calibration samples and up to four different target concentration brain levels: 2 ng/mL (LQC), 40 ng/mL (MQC), 100 ng/mL (HQC) and 2000 ng/mL. Data collection, peak integration and calculations were performed using MassLynx software, version 2.1.

[2] = Stability in mouse hepatic microsomes; conditions: for half-life at 1 µM: mouse, pooled liver microsomes
Method: 3.6.3 Compound stability in mouse hepatic microsomes and rat hepatocytes
A microsomal stability assay was performed as described in the BioFocus Standard
Operating Procedure ADME-SOP-83, using pooled hepatic mouse
Test and control compounds (midazolam,
dextromethorphan), were prepared in DMSO and incubated at an initial concentration
in the presence of the cofactor, NADPH (1 mM). Aliquots were removed at 0, 5, 10,
20 and 40 minutes for termination of reactions and compound extraction with ACN
containing an analytical internal standard. Samples were centrifuged and the
supernatant fractions analysed for parent compound by mass spectrometry (LC-
MS/MS). The amount of compound remaining (expressed as %) was determined from
the MS response in each sample relative to that in the T = 0 samples (normalised for
internal standard). Ln plots of the % remaining were used to determine the half-life
the slope of the Ln % remaining vs time curve. The in vitro intrinsic clearance Clint

SMILES: Cc1cc2c(c(C)c1Cl)N(CC(=O)O)C(=O)CO2 [compound 1, (6-chloro-5,7-dimethyl-3-oxo-2,3-dihydro-4H-1,4-benzoxazin-4-yl) acetic acid]
- Papp A→B at 1 h, 10 µM (MDR1 (P-glycoprotein); MDCK-MDR1, pH 7.4, MDR1 MDCK, read-out: Papp A>B Mean): 16 ×10⁻⁶ cm/s
- Papp B→A at 1 h, 10 µM (MDR1 (P-glycoprotein); MDCK-MDR1, pH 7.4, MDR1 MDCK, read-out: Papp B>A Mean): 2.1 ×10⁻⁶ cm/s
- recovery at 1 h, 10 µM (MDR1 (P-glycoprotein); MDCK-MDR1, pH 7.4, MDR1 MDCK, read-out: Recovery A>B Mean): 99%
- recovery at 1 h, 10 µM (MDR1 (P-glycoprotein); MDCK-MDR1, pH 7.4, MDR1 MDCK, read-out: Recovery A>B n=1): 107%
- recovery at 1 h, 10 µM (MDR1 (P-glycoprotein); MDCK-MDR1, pH 7.4, MDR1 MDCK, read-out: Recovery A>B n=2): 91%
- recovery at 1 h, 10 µM (MDR1 (P-glycoprotein); MDCK-MDR1, pH 7.4, MDR1 MDCK, read-out: Recovery B>A Mean): 84%
- recovery at 1 h, 10 µM (MDR1 (P-glycoprotein); MDCK-MDR1, pH 7.4, MDR1 MDCK, read-out: Recovery B>A n=1): 62%
- recovery at 1 h, 10 µM (MDR1 (P-glycoprotein); MDCK-MDR1, pH 7.4, MDR1 MDCK, read-out: Recovery B>A n=2): 106%
- Papp A→B at 1 h, 10 µM (MDR1 (P-glycoprotein); MDCK-MDR1, pH 7.4, Papp A>B n=1, MDR1 MDCK): 18 ×10⁻⁶ cm/s
- Papp A→B at 1 h, 10 µM (MDR1 (P-glycoprotein); MDCK-MDR1, pH 7.4, Papp A>B n=2, MDR1 MDCK): 14 ×10⁻⁶ cm/s
- Papp B→A at 1 h, 10 µM (MDR1 (P-glycoprotein); MDCK-MDR1, pH 7.4, Papp B>A n=1, MDR1 MDCK): 1.8 ×10⁻⁶ cm/s
- Papp B→A at 1 h, 10 µM (MDR1 (P-glycoprotein); MDCK-MDR1, pH 7.4, Papp B>A n=2, MDR1 MDCK): 2.4 ×10⁻⁶ cm/s
- Papp A→B at 1 h, 10 µM (in vitro; pH 7.4, Papp A>B n=1, wild type MDCK): 16 ×10⁻⁶ cm/s
- Papp A→B at 1 h, 10 µM (in vitro; pH 7.4, Papp A>B n=2, wild type MDCK): 11 ×10⁻⁶ cm/s
- Papp B→A at 1 h, 10 µM (in vitro; pH 7.4, Papp B>A n=1, wild type MDCK): 2.6 ×10⁻⁶ cm/s
- Papp B→A at 1 h, 10 µM (in vitro; pH 7.4, Papp B>A n=2, wild type MDCK): 2.3 ×10⁻⁶ cm/s
- Papp A→B at 1 h, 10 µM (in vitro; pH 7.4, wild type MDCK, read-out: Papp A>B Mean): 13.5 ×10⁻⁶ cm/s
- Papp B→A at 1 h, 10 µM (in vitro; pH 7.4, wild type MDCK, read-out: Papp B>A Mean): 2.45 ×10⁻⁶ cm/s
- recovery at 1 h, 10 µM (in vitro; pH 7.4, wild type MDCK, read-out: Recovery A>B Mean): 93.5%
- recovery at 1 h, 10 µM (in vitro; pH 7.4, wild type MDCK, read-out: Recovery A>B n=1): 100%
- recovery at 1 h, 10 µM (in vitro; pH 7.4, wild type MDCK, read-out: Recovery A>B n=2): 87%
- recovery at 1 h, 10 µM (in vitro; pH 7.4, wild type MDCK, read-out: Recovery B>A Mean): 108%
- recovery at 1 h, 10 µM (in vitro; pH 7.4, wild type MDCK, read-out: Recovery B>A n=1): 108%
- recovery at 1 h, 10 µM (in vitro; pH 7.4, wild type MDCK, read-out: Recovery B>A n=2): 109%
- concentration at 5 min ([1]; C57BL6, mouse, whole blood, iv, female C57BL/6 mice, 1 mg/kg i.v. bolus, 5 min, read-out: Level in the blood (mean)): 3780 ± 639 ng/mL
- Brain penetrance (in words) ([1]; mouse, 1 mg/kg i.v.): Minimal brain penetrance
- In brain ([1]; mouse, 1 mg/kg i.v., 60 min, single mice, analyte inhibitor 1 (also after prodrugs) or 1h): ≤ LLoQ
- Mean intrinsic clearance ([2]; mouse hepatic microsomes): < 28 µL/min/mg microsome protein
- half-life at 1 µM ([2]; Half-life Mean, mouse hepatic microsomes): > 1.67 h
- half-life at 1 µM ([2]; Half-life n=1, mouse hepatic microsomes): > 1.67 h
- half-life at 1 µM ([2]; Half-life n=2, mouse hepatic microsomes): > 1.67 h
